Data as given in ChEMBL document CHEMBL1152059, “Novel inhibitors of influenza sialidases related to zanamivir. Heterocyclic replacements of the glycerol sidechain” (Bioorg Med Chem Lett, 1997).

Each compound was assayed against Neuraminidase (Influenza A virus (A/Puerto Rico/8/1934(H1N1)), UniProt P03468) (assay: Inhibitory activity against influenza A virus sialidase).
Work on `CCCn1nc([C@@H]2OC(C(=O)OC(c3ccccc3)c3ccccc3)=C[C@H](NC(=O)OC(C)(C)C)[C@H]2NC(C)=O)nc1Cc1ccccc1` yielded an IC50 of 12 µM.
Work on `CC(=O)N[C@@H]1[C@@H](N)C=C(C(=O)O)O[C@H]1c1nc(Cc2ccccc2)no1` yielded an IC50 of 99 µM.
`CC(=O)N[C@@H]1[C@@H](N)C=C(C(=O)O)O[C@H]1c1nc(-c2ccccc2)no1` gave an IC50 of 14 µM.
With `CCCn1nc(Cc2ccccc2)nc1[C@@H]1OC(C(=O)OC(c2ccccc2)c2ccccc2)=C[C@H](NC(=O)OC(C)(C)C)[C@H]1NC(C)=O` the IC50 was 0.07 µM.
`CC(=O)N[C@@H]1[C@@H](N)C=C(C(=O)O)O[C@H]1c1nc(C)no1` showed an IC50 of 23 µM.
Compound `CCCCc1nnc([C@@H]2OC(C(=O)O)=C[C@H](N)[C@H]2NC(C)=O)n1CCC` has an IC50 of 0.33 µM.
Work on `CC(=O)N[C@@H]1[C@@H](NC(=O)OC(C)(C)C)C=C(C(=O)OC(c2ccccc2)c2ccccc2)O[C@H]1c1nnc(Cc2ccccc2)[nH]1` yielded an IC50 of 87 µM.
`CCCCc1noc([C@@H]2OC(C(=O)O)=C[C@H](N)[C@H]2NC(C)=O)n1` showed an IC50 of 56 µM.
